Values of other authors in patent publication US20190290629A1, “NIRAPARIB SUSTAINED AND CONTROLLED RELEASE PHARMACEUTICAL COMPOSITION AND USE THEREOF” (priority 2016, published 2019).
Where two headings read alike, the source gives them in different places.

Legend:
ovarian cancer = details: orally once daily
[1] = not given; remark: listed apart in the source
[2] = immediate release capsule, clinical studies

steady-state blood concentration peak value (300 mg/time/day): about 4.4 μM
steady-state blood concentration trough value (300 mg/time/day): ~2.0 µM
time at which steady-state blood concentration is reached (300 mg/time/day): 12 to 14 days
oral bioavailability (immediate release capsule of niraparib tosylate monohydrate, clinical studies): 73%
blood concentration peak time [2]: 3 h
effect of food on plasma exposure [2]: not affected by food
plasma half-life [2]: more than 30 hours
patients with 3-4 grade anemia ([1]; clinical studies): 25%
patients with grade 3-4 platelet reduction ([1]; clinical studies): 29%
patients with neutropenia ([1]; clinical studies): 30%
SMILES: NC(=O)c1cccc2cn(-c3ccc([C@@H]4CCCNC4)cc3)nc12 [niraparib, (S)-2-(4-(piperidin-3-yl)phenyl)-2H-indazole-7-carboxamide]
median progression free survival time (ovarian cancer; patients with ovarian cancer of BRCA gene mutation, after first chemotherapy): 21 months
median progression free survival time (ovarian cancer; patients without BRCA gene mutations): 9.3 months
dose-limiting toxicity ([1]; clinical): thrombocytopenia and anemia
patients who discontinued the treatment due to toxic and side effects ([1]; clinical studies): 15%
patients who reduced dose or stopped taking the drug due to toxic and side effects ([1]; clinical studies): 69%
